Source: patent publication US20110104159A1, “COMPOSITIONS AND METHODS FOR TREATING, CONTROLLING, REDUCING, AMELIORATING, OR PREVENTING ALLERGY” (priority 2006, published 2011)
Values joined by “and” are separate entries in the source; they are usually repeats but may differ in a detail not shown here. Identical values can stand only once.

Columns and labels:
[1] = test system: rabbit paracentesis model; assay: Clinical evaluation by slit lamp (clinical score), rabbit paracentesis model; assay type: in vivo; design: key to Clinical Score −180 min / Clinical Score −5 min / Clinical Score +115 min: 0: normal; 1: discrete dilatation of iris and conjunctival vessels; 2: moderate dilatation of iris and conjunctival vessels; 3: intense iridal hyperemia with flare in the anterior chamber; 4: intense iridal hyperemia with flare in the anterior chamber and presence of fibrinous exudates; details: for Clinical Score −5 min: 5 min before first paracentesis; for Clinical Score −5 min / Clinical Score +115 min / Clinical Score −180 min: individual eye, scale 0-4; for Clinical Score +115 min: 5 min before second paracentesis; for Clinical Score −180 min: basal
[2] = test system: protein concentration in the aqueous humor; assay: Protein measurement in aqueous humor; assay type: in vivo, Rabbit; details: for Protein in aqueous humor at the second paracentesis, Mean: group mean; for Protein in aqueous humor at the second paracentesis: individual eye sample
Description: (§1) Each rabbit was placed in a restraint device and tagged with the alphanumeric code. The formulations were instilled (50 μl) into the conjunctival sac of both eyes 180, 120, 90 and 30 min before the first paracentesis; then 15, 30, 90 min after the first paracentesis. To perform the first paracentesis the animals were anaesthetized by intravenous injection of 5 mg/kg Zoletil® (Virbac; 2.5 mg/kg tiletamine HCl and 2.5 mg/kg zolazepam HCl) and one drop of local anesthetic (Novesina®, Novartis) was administered to the eye. Anterior chamber paracentesis was performed with a 26 G needle attached to a tuberculin syringe; the needle was introduced into the anterior chamber through the cornea, taking care not to damage the tissues. Two hours after the first paracentesis, the animals were sacrificed with 0.4 ml Tanax® (Intervet International B.V.) and the second paracentesis was performed. About 100 μl of aqueous humor were removed at the second paracentesis. Aqueous humor was immediately split in four aliquots and stored at −80° C. until analysis. Then both eyes were enucleated and the iris-ciliary body was carefully excised, placed in polypropylene tubes, and stored at −80° C. until analysis.
For protein concentration determination in the aqueous humor we used the Protein Quantification Kit (Fluka; Cat. No. 77371; Lot. No. 1303129). Five microliters of aqueous humor were diluted to 100 μl with water. Twenty microliters of samples and of standards were load into a 96-well plate and recorded in a plate layout. Samples were treated following the assay procedure described in the kit. A microplate reader (GDV, Italy; model DV 990 B/V6) set at 670 nm was used for making the calibration and analyzing the samples.

[3] = test system: PGE2; assay: Prostaglandin E2 (PGE2) measurement in aqueous humor; assay type: in vivo, Rabbit; details: for PGE2 in aqueous humor at the second paracentesis, Mean: group mean; for PGE2 in aqueous humor at the second paracentesis: individual eye sample
Description: as §1
For the quantitative determination of PGE2 in the aqueous humor we used the PGE2 Immunoassay kit (R&D Systems; Cat. No. KGE004; Lot. No. 240010). Eleven microliters or 16 μl of aqueous humor were diluted to 110 μl or 160 μl with the calibrator diluent solution provided with the kit. One hundred microliters of samples and of standards were load into a 96-well plate and recorded in a plate layout. Samples were treated following the assay procedure described in the kit. A microplate reader (GDV, Italy; model DV 990 B/V6) set at 450 nm (wavelength correction at 540 nm) was used for making the calibration and analyzing the samples.

[4] = test system: MPO; assay: Myeloperoxidase (MPO) activity in iris-ciliary body; assay type: in vivo, Rabbit; details: for Mean MPO Unit/g (MPO activity in iris-ciliary body samples): group mean, after the second paracentesis; for MPO Unit/g (raw data of MPO activity in iris-ciliary body samples): individual eyes (DX/SX) of rabbits, samples collected after the second paracentesis
Description: 2.3.2.1 Phosphate Buffer (50 mM; pH=6)
3.9 g of NaH2PO4 2H2O were dissolved in a volumetric flask to 500 ml with water. The pH was adjusted to pH=6 with 3N NaOH.
0.5 g of hexa-decyl-trimethyl-ammonium bromide was dissolved in 100 ml phosphate buffer.
The solution was prepared freshly. Ten microliters of H2O2 (30 wt. %) were diluted to 1 ml with water (solution A). 7.5 mg o-dianisidine 2HCl were dissolved in 45 ml of phosphate buffer and 75 μl of solution A were added.
as §1
The activity of MPO was measured as previously described by Williams et al. The iris-ciliary bodies were carefully dried, weighed and immersed in 1 ml of hexa-decyl-trimethyl-ammonium bromide solution. Then, the samples were sonicated for 10 sec on ice by a ultrasound homogenizer (HD 2070, Bandelin electronic), freeze-thawed three times, sonicated for 10 sec and centrifuged at 14,000 g for 10 min to remove cellular debris. An aliquot of the supernatant (40-200 μl) was diluted to 3 ml with the o-dianisidine 2HCl/H2O2 solution. The change in absorbance at 460 nm was continuously monitored for 5 min by a spectrophotometer (UV/Vis Spectrometer Lambda EZ 201; Perkin Elmer). The slope of the line (Δ/min) was determined for each sample and used to calculate the number of units of MPO in the tissue as follows:
where ε=11.3 mM^−1. Values were expressed as units of MPO/g of tissue.

[5] = test system: leukocytes (PMN); assay: Leukocytes (PMN) measurement in aqueous humor; assay type: in vivo, Rabbit; details: for PMN in aqueous humor at the second paracentesis, Mean: group mean; for PMN in aqueous humor at the second paracentesis: individual eye sample
Description: as §1
For the determination of the number of leukocytes we used a haemocytometer (Improved Neubauer Chamber; Brigth-line, Hausser Scientific) and a Polyvar 2 microscope (Reichert-Jung).

[6] = test system: rabbit paracentesis model; assay: Pupillary diameter measurement, rabbit paracentesis model; assay type: in vivo; details: individual eye; for Pupillary diameter T2: −5 min: 5 min before first paracentesis; for Pupillary diameter T3: +115 min: 5 min before second paracentesis; for Pupillary diameter Δ(T3 − T1): +115 min minus −180 min; for Pupillary diameter T1: −180 min: basal
Description: as §1
The pupillary diameter of both eyes was measured with a Castroviejo caliper 180 min and 5 min before the first paracentesis and 5 min before the second paracentesis.

C[C@@H]1C[C@H]2[C@@H]3CCC4=CC(=O)C=C[C@]4(C)[C@@]3(F)[C@@H](O)C[C@]2(C)[C@@]1(O)C(=O)CO [Dex, Dexamethasone, reference compound]
Clinical Score −5 min ([1]; 0.1% topical): 0 (6×) and 1 (2×) | Clinical Score +115 min ([1]; 0.1% topical): 1 (6×) and 3 (2×) | Percentage of eyes with clinical score 1 ([1]; 0.1% topical, +115 min, 8 eyes): 75% | Percentage of eyes with clinical score 3 ([1]; 0.1% topical, +115 min, 8 eyes): 25% | Clinical Score −180 min ([1]; 0.1% topical): 0 | Percentage of eyes with clinical score 0 ([1]; 0.1% topical, −5 min, 8 eyes): 75% | Percentage of eyes with clinical score 1 ([1]; 0.1% topical, −5 min, 8 eyes): 25% | Percentage of eyes with clinical score 0 ([1]; 0.1% topical, −180 min, 8 eyes): 100% | Protein in aqueous humor at the second paracentesis, Mean ([2]; 0.1% topical): 33.457 mg/mL | Protein in aqueous humor at the second paracentesis ([2]; 0.1% topical): 31.31 mg/mL and 31.81 mg/mL and 35.95 mg/mL and 37.15 mg/mL and 32.12 mg/mL and 32.40 mg/mL | PGE2 in aqueous humor at the second paracentesis, Mean ([3]; 0.1% topical): 2.263 ng/mL | PGE2 in aqueous humor at the second paracentesis ([3]; 0.1% topical): 2.51 ng/ml and 2.32 ng/ml (2×) and 2.10 ng/ml and 3.03 ng/ml and 1.30 ng/ml | Mean MPO Unit/g (MPO activity in iris-ciliary body samples) ([4]; 0.1% treatment): 0.618 Unit/g | MPO Unit/g (raw data of MPO activity in iris-ciliary body samples) ([4]; 0.1% treatment): 0.71 Unit/g and 0.60 Unit/g and 1.32 Unit/g and 0.48 Unit/g (2×) and 0.39 Unit/g and 0.45 Unit/g and 0.51 Unit/g | PMN in aqueous humor at the second paracentesis, Mean ([5]; 0.1% topical): 30.000 number/μl | PMN in aqueous humor at the second paracentesis ([5]; 0.1% topical): 20 number/μl (3×) and 50 number/μl and 40 number/μl and 30 number/μl | Pupillary diameter T2: −5 min ([6]; 0.1% topical): 5.5 mm and 6.5 mm (3×) and 6.0 mm (2×) and 7.0 mm and 7.5 mm | Pupillary diameter T3: +115 min ([6]; 0.1% topical): 5.5 mm (3×) and 6.0 mm (2×) and 4.5 mm and 5.0 mm and 6.5 mm | Pupillary diameter Δ(T3 − T1) ([6]; 0.1% topical): −0.5 mm (3×) and −1.5 mm (2×) and 0.5 mm and 0.0 mm and −2.0 mm | Pupillary diameter T1: −180 min ([6]; 0.1% topical): 6.0 mm and 7.0 mm (2×) and 5.5 mm (2×) and 6.5 mm (3×)

CC(C(=O)O)c1ccc(-c2ccccc2)c(F)c1 (centres unmarked) [F, flurbiprofen, reference compound]
Clinical Score −5 min ([1]; 0.03% topical): 0 | Clinical Score +115 min ([1]; 0.03% topical): 2 | Percentage of eyes with clinical score 2 ([1]; 0.03% topical, +115 min, 8 eyes): 100% | Clinical Score −180 min ([1]; 0.03% topical): 0 | Percentage of eyes with clinical score 0 ([1]; 0.03% topical, −5 min, 8 eyes): 100% | Percentage of eyes with clinical score 0 ([1]; 0.03% topical, −180 min, 8 eyes): 100% | Protein in aqueous humor at the second paracentesis, Mean ([2]; 0.03% topical): 20.910 mg/mL | Protein in aqueous humor at the second paracentesis ([2]; 0.03% topical): 20.78 mg/mL and 28.80 mg/mL and 23.41 mg/mL and 20.21 mg/mL and 17.53 mg/mL and 15.12 mg/mL and 20.52 mg/mL | Protein in aqueous humor, statistical comparison with CTR ([2]; 0.03% topical, p<0.001): statistical significance | PGE2 in aqueous humor at the second paracentesis, Mean ([3]; 0.03% topical): 1.189 ng/mL | PGE2 in aqueous humor at the second paracentesis ([3]; 0.03% topical): 1.04 ng/ml and 0.75 ng/ml and 0.85 ng/ml and 1.11 ng/ml and 2.11 ng/ml (2×) and 0.93 ng/ml and 0.61 ng/ml | PGE2 in aqueous humor, statistical comparison with CTR ([3]; 0.03% topical, p<0.05): statistically significant versus CTR | MPO activity in iris-ciliary body, statistical comparison with CTR ([4]; 0.03% topical, p<0.01): statistical significance | Mean MPO Unit/g (MPO activity in iris-ciliary body samples) ([4]; 0.03% treatment): 0.906 Unit/g | MPO Unit/g (raw data of MPO activity in iris-ciliary body samples) ([4]; 0.03% treatment): 1.10 Unit/g and 1.70 Unit/g and 0.34 Unit/g and 0.75 Unit/g and 0.74 Unit/g and 0.63 Unit/g and 0.73 Unit/g and 1.27 Unit/g | PMN in aqueous humor at the second paracentesis, Mean ([5]; 0.03% topical): 30.000 number/μl | PMN in aqueous humor at the second paracentesis ([5]; 0.03% topical): 50 number/μl and 40 number/μl (2×) and 20 number/μl (2×) and 10 number/μl and 30 number/μl | Pupillary diameter T2: −5 min ([6]; 0.03% topical): 6.0 mm (3×) and 6.5 mm (3×) and 7.0 mm and 5.5 mm | Pupillary diameter T3: +115 min ([6]; 0.03% topical): 4.0 mm and 3.5 mm and 5.5 mm (2×) and 5.0 mm (2×) and 4.5 mm and 6.0 mm | Pupillary diameter Δ(T3 − T1) ([6]; 0.03% topical): −1.0 mm (3×) and −1.5 mm (3×) and 0.0 mm (2×) | Pupillary diameter T1: −180 min ([6]; 0.03% topical): 5.0 mm (2×) and 7.0 mm and 6.0 mm (4×) and 5.5 mm
